Patent US20250221960A1, “COMPOSITIONS AND METHODS FOR THE TREATMENT OF DEPRESSION” (Janssen Pharmaceuticals, Inc., priority 2022, published 2025)

Legend:
[1] = Completion / early withdrawal, Example 1; type: in vivo, human; conditions: Full Safety Analysis Set; 10 mg, N = 85
Excerpt: Patients who passed the screening phase entered a lead in phase followed by a double-blind phase. Patients who responded to placebo during the lead in phase were labelled as non-responders. […] The double-blind treatment phase then continued for an additional 6 weeks, after which patients entered a withdrawal period.
Of the 121 subjects in the enriched population (60 in aticaprant and 61 in placebo group), 117 (96.7%) completed the study. The overall completion rate for the full ITT analysis set is 95%. This contrasts with completion rates of approximately 85% for studies of adjunctive aripiprazole (Pae, CNS Drugs, 2011; 25, 109-127) and 45-62% for adjunctive quetiapine (El Khalili cited above). In total 4 subjects (3.3%) discontinued the study: 2 subjects in placebo and 2 subjects in aticaprant treatment group. See, Tables 30 and 31.

[2] = system: subjects with MDD; assay: SATE score, Example 1; type: in vivo, human; conditions: Treatment Week 6, 10 mg
Excerpt: SATE is a one to three questionnaire administered when the subject is unable to complete other evaluations, i.e., away from the clinical setting such as at home. SATE is useful to evaluate improvement or deterioration of depressive symptoms of the subjects over a short period of time. […] See, Table C.
iv. To investigate the effect of aticaprant on symptoms of depression using the Clinical Global Impression-Severity (CGI-S), the patient reported Symptoms of Major Depressive Disorder Scale (SMDDS) and the self-assessment of treatment experience (SATE).
(§1) • (i) Depression: Montgomery-Åsberg Depression Rating Scale (MADRS), Clinical Global Impression-Severity (CGI-S), Symptoms of Major Depressive Disorder Scale (SMDDS), and Self-assessment of treatment experience (SATE) • (ii) Anhedonia: Snaith-Hamilton Pleasure Scale (SHAPS) • (iii) Anxiety: Structured Interview Guide for the Hamilton Anxiety scale (SIGH-A) and HAM-A6 • (iv) Effects on Cognition: The Cognitive and Physical Functioning Questionnaire (CPFQ) • (v) Safety assessments

[3] = system: subjects with MDD; assay: SIGH-A score (anxiety), Example 1; type: in vivo, human; conditions: Treatment Week 6; 10 mg; 59 subjects analyzed
Excerpt: (§2) v. To investigate the effect of aticaprant on symptoms of anxiety using the HAM-A and on core symptoms of anxiety using the HAM-A6 subscale.
as §1

[4] = system: subjects with MDD; assay: Treatment-emergent adverse events, full safety analysis set, Example 1
[5] = Weight change by treatment group, Example 1; type: in vivo, human
Description: Treatment with aticaprant as described herein has several advantages over the treatments in the art. […] As used herein, the term “weight gain” refers to an increase in the weight of patient, relative to the weight of the patient before taking aticaprant or the weight of the patient that is assessed at the time of the initial administration of the aticaprant. In certain embodiments, the patient may actually see a decrease in overall weight, relative to the weight of the patient before taking aticaprant.
At the lead-in baseline timepoint, the mean weight for subjects in the placebo group was 76.17 kg compared to 78.66 in the aticaprant group. After 6 weeks in the double-blind treatment phase, the mean weight in the placebo group was 75.75 kg compared to 78.57 kg in the aticaprant group. […] This is unexpected because other adjunctive treatments for MDD result in a mean weight increase. See, Thase M, et al. J Clin Psych. 2015: 76 (9), 1224-1231; Thase, J Clin Psych. 2015, 76 (9): 1232-1240; El Khalili, Int J Neuropsychopharmacol. 2010, 13, 917-932; Marcus, J. Clin. Psychopharmacol. […] Nashville, Tenn, ACNP, 2008; Earley, American College of Neuropsychopharmacology, 2007, Annual Meeting Abstracts (Boca Raton, Fla, Dec. 9-13, 2007). Nashville, TN, ACNP, 2007). See, Table 29.

[6] = system: subjects with MDD; assay: HAM-A6 total score (anxiety), Example 1; type: in vivo, human; conditions: Treatment Week 6
Excerpt: as §2, §1

[7] = system: subjects with MDD; assay: ASEX sexual functioning, Example 1; type: in vivo, human
Excerpt: As used herein, the term “decrease in sexual functioning” refers to reducing or lessening of one or more components of the human sex drive, i.e., sexual functioning. In some embodiments, the sexual functioning comprises one or more of sexual drive, sexual arousal, vaginal lubrication, erection, orgasm achievement, or orgasm satisfaction. In other embodiments, the sexual functioning comprises sexual drive. In further embodiments, the sexual functioning comprises vaginal lubrication satisfaction. In further embodiments, the sexual functioning comprises orgasm achievement. In yet other embodiments, the sexual functioning comprises orgasm satisfaction. Desirably, the patient's sexual functioning is assessed at the time of initial administration of the aticaprant. Thus, the patient's sexual functioning while taking aticaprant can be compared to the patient's sexual functioning before administration of aticaprant. Sexual functioning may be assessed by using standard scales and techniques such as the Arizona Sexual Experience Scale (ASEX). The ASEX is used to investigate whether aticaprant has a further positive or negative effect on sexual function. The ASEX is 5 item rating scale administered to patients that quantifies sexual drive, sexual arousal, vaginal lubrication or penile erection, ability to reach orgasm and satisfaction. Scores range from 5 to 30, and two different versions of the scale are available (males and females).
Patients had their sexual functioning measured using a standard, well accepted rating scale: ASEX. See, Table 32.

[8] = Table 24, treatment period, Full Safety Analysis Set, 10 mg, N = 85
[9] = Table 25, treatment period, Full Safety Analysis Set, 10 mg, N = 85
[10] = Treatment period, Full Safety Analysis Set, 10 mg, N = 85

SMILES: Cc1cc(C)cc(C2CCCN2Cc2ccc(Oc3ccc(C(N)=O)cc3F)cc2)c1 (centres unmarked) [aticaprant, 3-fluoro-4-4-2-(3,5-dimethylphenyl) pyrrolidin-1-yl-methylphenoxybenzamide]
- Reason For Withdrawal/Termination: Adverse event [1]: 1 (1.2%)
- Number of Subjects with SATE Score: Depression Worsened (Much worse) ([2]; n = 0): 0 subjects
- Number of Subjects with SATE Score: Depression Worsened (Slightly worse) ([2]; n = 0): 0 subjects
- Number of Subjects with SATE Score: Depression Worsened (Very much worse) ([2]; n = 0): 0 subjects
- Number of Subjects with SATE Score: Depression Much improved ([2]; n = 21): 6 subjects
- Number of Subjects with SATE Score: Depression Slightly improved ([2]; n = 21): 15 subjects
- Number of Subjects with SATE Score: Depression Very Much Improved ([2]; n = 21): 0 subjects
- Number of Subjects with SATE Score: Overall Depression (Got worse) ([2]; n = 30): 0 subjects
- Number of Subjects with SATE Score: Overall Depression (Improved) ([2]; n = 30): 21 subjects
- Number of Subjects with SATE Score: Overall Depression (Not changed) ([2]; n = 30): 9 subjects
- Change from Treatment Baseline in Structured Interview Guide for the SIGH-A Score, Arithmetic Mean (SD) [3]: −5.85 ± 5.369 scores on a scale
- TEAE in >=5% of subjects: Diarrhea [4, 8]: 7 (8) n (%)
- TEAE in >=5% of subjects: Gastrointestinal Disorders [4, 8]: 12 (14) n (%)
- TEAE in >=5% of subjects: Headache [4, 8]: 10 (12) n (%)
- TEAE in >=5% of subjects: Infections And Infestations [4, 8]: 13 (15) n (%)
- TEAE in >=5% of subjects: Nasopharyngitis [4, 8]: 5 (6) n (%)
- TEAE in >=5% of subjects: Nervous System Disorders [4, 8]: 13 (15) n (%)
- TEAE in >=5% of subjects: Pruritus [4, 8]: 5 (6) n (%)
- TEAE in >=5% of subjects: Skin And Subcutaneous Tissue Disorders [4, 8]: 6 (7) n (%)
- TEAE in >=5% of subjects: Total no. Subjects with Adverse Events [4, 8]: 40 (47) n (%)
- TEAE of Special Interest: Abdominal Pain [4, 9]: 1 (1.2) n (%)
- TEAE of Special Interest: Abdominal Pain Upper [4, 9]: 0 n (%)
- TEAE of Special Interest: Diarrhea [4, 9]: 7 (8.2) n (%)
- TEAE of Special Interest: Dyspepsia [4, 9]: 1 (1.2) n (%)
- TEAE of Special Interest: Gastrointestinal Disorders [4, 9]: 9 (10.6) n (%)
- TEAE of Special Interest: Pruritus [4, 9]: 5 (5.9) n (%)
- TEAE of Special Interest: Skin And Subcutaneous Tissue Disorders [4, 9]: 5 (5.9) n (%)
- TEAE of Special Interest: Total no. Subjects with Adverse Events of Special Interest [4, 9]: 13 (15.3) n (%)
- Subjects with 1 or more TEAE [4, 10]: 40 (47.1) n (%)
- Subjects with 1 or more serious TEAE [4, 10]: 0 n (%)
- Subjects with TEAE leading to death [4, 10]: 0 n (%)
- Subjects with TEAE leading to discontinuation of agent [4, 10]: 1 (1.2) n (%)
- Total subjects affected by non-serious adverse events [4, 10]: 23 (27.1%) n (%)
- Subjects with drug-related TEAE ([4]; Treatment period, Full Safety Analysis Set, 10 mg, N = 85, relationships possible, probable, very likely): 20 (23.5) n (%)
- patients who experienced acute cholecystitis ([4]; treatment period): 0 patients
- TEAE of special interest pruritus, subjects ([4]; treatment period, 5/85): 5.9%
- TEAE diarrhea, subjects ([4]; treatment period, 7/85): 8.2%
- TEAE headache, subjects ([4]; treatment period, 10/85): 11.8%
- subjects who discontinued due to treatment-emergent adverse events ([4]; treatment period, due to diarrhea, nausea, vomiting and headache): 1 subject
- Mean weight: Relative % Change ([5]; Withdrawal vs Lead-in, n = 85): −0.11%
- weight over the 6-week double blind treatment period ([5]; in vivo): remained relatively stable
- Mean weight: Absolute Change (Withdrawal - Lead-in) ([5]; n = 85): -0.09 kg
- improvement in HAMA6 score vs. placebo [6]: greater improvement
- ASEX score: Relative % Change ([7]; Endpoint vs Baseline, n = 85): −6.91%
- ASEX score: Absolute Change ([7]; Endpoint vs Baseline, n = 85, lower score indicates improvement): −1.47
- sexual functioning during treatment ([7]; based on assessment at time of initial administration): does not experience a decrease in sexual functioning
- mean change from treatment baseline (SD) in ASEX total score ([7]; to week 6): -1.5 (4.02) points
